Our source for the Kd values is ChEMBL document CHEMBL3991601, “The target landscape of clinical kinase drugs” (Science, 2017).

The source made the active and inactive calls. Cut-off read from the data, not from the text of the source, for most assays here: actives have a measured Kd and inactives only a lower limit. Bounds are passed on as bounds.

In experiment [1] the target is GTP-binding nuclear protein Ran (Homo sapiens, UniProt P62826).
The target of experiment [2] is Mitogen-activated protein kinase 8 (Homo sapiens, UniProt P45983).
Experiment [3] concerns the target LIM domain kinase 2 (Homo sapiens, UniProt P53671).
For experiment [4], the target named is Tyrosine-protein kinase JAK1 (Homo sapiens, UniProt P23458).
Tyrosine-protein kinase JAK1, sequence (P23458 whole entry): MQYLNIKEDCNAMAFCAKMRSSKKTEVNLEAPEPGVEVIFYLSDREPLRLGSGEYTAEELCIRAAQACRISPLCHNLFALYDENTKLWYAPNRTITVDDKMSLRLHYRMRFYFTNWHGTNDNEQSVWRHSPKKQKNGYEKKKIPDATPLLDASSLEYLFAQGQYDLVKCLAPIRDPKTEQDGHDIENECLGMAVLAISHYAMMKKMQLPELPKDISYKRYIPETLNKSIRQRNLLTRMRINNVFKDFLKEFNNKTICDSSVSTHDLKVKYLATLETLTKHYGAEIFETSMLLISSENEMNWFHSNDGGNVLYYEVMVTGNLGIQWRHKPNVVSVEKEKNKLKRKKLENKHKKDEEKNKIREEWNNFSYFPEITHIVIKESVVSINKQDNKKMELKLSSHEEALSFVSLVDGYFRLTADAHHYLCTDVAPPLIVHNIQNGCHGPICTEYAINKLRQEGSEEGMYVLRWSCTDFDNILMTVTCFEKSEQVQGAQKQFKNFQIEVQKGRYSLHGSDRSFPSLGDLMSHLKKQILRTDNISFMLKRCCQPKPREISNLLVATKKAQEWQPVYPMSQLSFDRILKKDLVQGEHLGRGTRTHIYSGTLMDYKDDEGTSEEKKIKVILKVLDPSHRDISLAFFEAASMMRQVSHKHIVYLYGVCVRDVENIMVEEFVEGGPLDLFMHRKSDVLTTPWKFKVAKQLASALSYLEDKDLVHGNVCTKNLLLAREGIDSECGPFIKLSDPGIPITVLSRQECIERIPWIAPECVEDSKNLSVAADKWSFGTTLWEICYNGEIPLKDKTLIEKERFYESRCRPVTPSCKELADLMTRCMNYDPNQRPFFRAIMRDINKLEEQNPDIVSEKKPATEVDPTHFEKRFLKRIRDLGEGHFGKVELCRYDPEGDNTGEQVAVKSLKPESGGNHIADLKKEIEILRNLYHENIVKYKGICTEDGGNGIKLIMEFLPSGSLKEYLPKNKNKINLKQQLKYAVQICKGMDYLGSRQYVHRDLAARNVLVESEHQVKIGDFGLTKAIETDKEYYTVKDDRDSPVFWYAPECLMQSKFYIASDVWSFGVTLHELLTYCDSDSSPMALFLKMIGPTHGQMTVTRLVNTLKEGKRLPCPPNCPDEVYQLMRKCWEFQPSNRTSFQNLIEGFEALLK
Experiment [5] deals with Aurora kinase B (Homo sapiens, UniProt Q96GD4).
The target of experiment [6] is Serine/threonine-protein kinase N1 (Homo sapiens, UniProt Q16512).
Serine/threonine-protein kinase N1, sequence (Q16512 whole entry): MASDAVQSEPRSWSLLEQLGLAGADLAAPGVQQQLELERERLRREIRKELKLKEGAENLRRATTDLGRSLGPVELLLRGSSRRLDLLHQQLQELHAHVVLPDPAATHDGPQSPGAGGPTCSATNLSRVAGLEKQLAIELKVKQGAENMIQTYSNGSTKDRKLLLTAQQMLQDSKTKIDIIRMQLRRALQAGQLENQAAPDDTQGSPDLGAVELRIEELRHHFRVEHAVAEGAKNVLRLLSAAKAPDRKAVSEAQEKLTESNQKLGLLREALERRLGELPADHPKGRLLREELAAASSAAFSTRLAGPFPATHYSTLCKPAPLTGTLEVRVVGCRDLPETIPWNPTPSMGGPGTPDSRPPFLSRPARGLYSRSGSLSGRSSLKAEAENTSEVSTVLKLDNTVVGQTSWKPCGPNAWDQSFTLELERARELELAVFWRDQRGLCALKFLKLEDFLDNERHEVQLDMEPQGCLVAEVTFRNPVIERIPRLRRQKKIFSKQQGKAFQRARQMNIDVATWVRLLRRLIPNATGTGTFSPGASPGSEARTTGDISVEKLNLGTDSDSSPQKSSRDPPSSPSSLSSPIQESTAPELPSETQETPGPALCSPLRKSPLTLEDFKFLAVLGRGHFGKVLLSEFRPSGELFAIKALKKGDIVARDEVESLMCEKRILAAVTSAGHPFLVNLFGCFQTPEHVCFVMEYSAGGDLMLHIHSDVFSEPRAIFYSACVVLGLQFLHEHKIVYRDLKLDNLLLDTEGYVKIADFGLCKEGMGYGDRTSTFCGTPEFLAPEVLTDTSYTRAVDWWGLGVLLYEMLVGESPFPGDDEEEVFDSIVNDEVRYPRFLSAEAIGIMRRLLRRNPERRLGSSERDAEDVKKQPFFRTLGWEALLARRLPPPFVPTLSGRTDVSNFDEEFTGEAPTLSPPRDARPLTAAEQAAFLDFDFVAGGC
Experiment [7] concerns the target Tyrosine-protein kinase ABL1 (Homo sapiens, UniProt P00519).
Experiment [8] concerns the target T1, Ferrochelatase, mitochondrial (Homo sapiens, UniProt P22830).
T1 sequence (P22830 whole entry): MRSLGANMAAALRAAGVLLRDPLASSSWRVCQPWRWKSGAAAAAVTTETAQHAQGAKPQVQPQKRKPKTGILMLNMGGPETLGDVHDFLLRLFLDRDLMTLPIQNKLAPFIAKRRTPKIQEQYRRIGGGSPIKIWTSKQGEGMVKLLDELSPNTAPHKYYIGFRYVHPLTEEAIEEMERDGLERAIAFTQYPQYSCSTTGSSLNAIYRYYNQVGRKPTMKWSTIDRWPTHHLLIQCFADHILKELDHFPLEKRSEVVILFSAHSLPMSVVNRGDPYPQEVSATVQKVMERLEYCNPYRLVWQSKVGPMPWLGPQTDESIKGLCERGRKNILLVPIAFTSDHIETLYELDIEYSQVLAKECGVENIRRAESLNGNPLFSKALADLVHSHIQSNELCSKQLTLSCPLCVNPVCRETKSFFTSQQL

Experiment [9] has as its target G protein-coupled receptor kinase 6 (Homo sapiens, UniProt P43250).
The target of experiment [10] is 26S proteasome regulatory subunit 6B (Homo sapiens, UniProt P43686).
Experiment [11] addresses Serine/threonine-protein kinase MRCK beta (Homo sapiens, UniProt Q9Y5S2).
In experiment [12] the target is AP2-associated protein kinase 1 (Homo sapiens, UniProt Q2M2I8).
AP2-associated protein kinase 1, sequence (Q2M2I8 whole entry): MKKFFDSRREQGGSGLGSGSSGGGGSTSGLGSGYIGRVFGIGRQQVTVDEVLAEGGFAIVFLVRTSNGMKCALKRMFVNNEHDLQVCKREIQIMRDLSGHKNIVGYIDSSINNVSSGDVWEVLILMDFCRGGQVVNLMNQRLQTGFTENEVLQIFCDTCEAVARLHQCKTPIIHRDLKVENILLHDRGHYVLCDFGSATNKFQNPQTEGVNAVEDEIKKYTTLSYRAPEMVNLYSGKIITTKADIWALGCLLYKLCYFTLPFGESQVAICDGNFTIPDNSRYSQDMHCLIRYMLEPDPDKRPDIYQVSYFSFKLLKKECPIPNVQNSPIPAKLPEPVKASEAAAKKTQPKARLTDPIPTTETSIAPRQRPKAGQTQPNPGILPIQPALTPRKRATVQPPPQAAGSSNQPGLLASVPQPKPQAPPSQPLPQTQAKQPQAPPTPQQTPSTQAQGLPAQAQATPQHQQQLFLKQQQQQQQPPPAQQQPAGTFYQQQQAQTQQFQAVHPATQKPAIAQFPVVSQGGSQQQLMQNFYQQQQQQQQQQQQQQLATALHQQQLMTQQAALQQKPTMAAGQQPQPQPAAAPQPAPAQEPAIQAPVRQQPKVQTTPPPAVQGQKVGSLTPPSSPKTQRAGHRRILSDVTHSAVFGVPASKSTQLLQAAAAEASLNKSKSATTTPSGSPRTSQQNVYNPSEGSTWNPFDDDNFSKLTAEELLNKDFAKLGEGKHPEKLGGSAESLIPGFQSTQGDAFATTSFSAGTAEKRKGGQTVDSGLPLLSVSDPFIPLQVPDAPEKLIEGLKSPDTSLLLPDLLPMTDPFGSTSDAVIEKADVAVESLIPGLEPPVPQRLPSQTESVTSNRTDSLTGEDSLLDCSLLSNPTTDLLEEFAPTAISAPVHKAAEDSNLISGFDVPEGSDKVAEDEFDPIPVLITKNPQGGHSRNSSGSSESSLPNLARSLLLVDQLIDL
The target in experiment [13] is Actin-related protein 2 (Homo sapiens, UniProt P61160).
Experiment [14] has as its target Maternal embryonic leucine zipper kinase (Homo sapiens, UniProt Q14680).
Experiment [15] concerns the target Calcium/calmodulin-dependent protein kinase type II subunit delta (Homo sapiens, UniProt Q13557).
The target in experiment [16] is T2, Serine/threonine-protein kinase PLK4 (Homo sapiens, UniProt O00444).
T2 sequence (O00444 whole entry): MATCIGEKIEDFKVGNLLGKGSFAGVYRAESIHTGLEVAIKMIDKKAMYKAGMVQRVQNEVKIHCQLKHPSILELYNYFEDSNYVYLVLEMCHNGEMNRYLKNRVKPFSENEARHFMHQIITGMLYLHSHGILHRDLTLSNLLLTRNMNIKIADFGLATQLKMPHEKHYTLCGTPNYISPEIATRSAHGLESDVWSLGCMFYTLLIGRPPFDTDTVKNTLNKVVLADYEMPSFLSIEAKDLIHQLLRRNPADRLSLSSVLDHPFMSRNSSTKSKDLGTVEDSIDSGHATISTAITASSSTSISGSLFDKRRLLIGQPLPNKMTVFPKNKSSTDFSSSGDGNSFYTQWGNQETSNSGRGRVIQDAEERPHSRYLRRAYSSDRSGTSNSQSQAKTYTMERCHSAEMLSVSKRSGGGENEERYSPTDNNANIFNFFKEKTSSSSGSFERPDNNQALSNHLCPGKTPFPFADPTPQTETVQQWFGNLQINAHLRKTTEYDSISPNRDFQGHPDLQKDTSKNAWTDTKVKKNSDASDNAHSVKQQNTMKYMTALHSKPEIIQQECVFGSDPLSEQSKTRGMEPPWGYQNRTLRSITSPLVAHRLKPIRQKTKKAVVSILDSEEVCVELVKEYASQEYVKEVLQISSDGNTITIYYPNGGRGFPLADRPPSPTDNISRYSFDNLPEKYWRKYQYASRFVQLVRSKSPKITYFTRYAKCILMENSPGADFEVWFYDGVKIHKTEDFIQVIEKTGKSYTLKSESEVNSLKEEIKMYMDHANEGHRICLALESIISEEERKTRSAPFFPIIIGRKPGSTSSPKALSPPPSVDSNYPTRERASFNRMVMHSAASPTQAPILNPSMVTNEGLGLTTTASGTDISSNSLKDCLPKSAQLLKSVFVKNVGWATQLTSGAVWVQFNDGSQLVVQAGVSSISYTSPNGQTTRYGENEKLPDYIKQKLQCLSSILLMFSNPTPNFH

Experiment [17] has as its target Ribosomal protein S6 kinase alpha-1 (Homo sapiens, UniProt Q15418).
Experiment [18] deals with Guanine nucleotide-binding protein G(i) subunit alpha-2 (Homo sapiens, UniProt P04899).
Note: in the data inactive means no Kd found up to 30 µM.

G protein-coupled receptor kinase 6, sequence (P43250 whole entry): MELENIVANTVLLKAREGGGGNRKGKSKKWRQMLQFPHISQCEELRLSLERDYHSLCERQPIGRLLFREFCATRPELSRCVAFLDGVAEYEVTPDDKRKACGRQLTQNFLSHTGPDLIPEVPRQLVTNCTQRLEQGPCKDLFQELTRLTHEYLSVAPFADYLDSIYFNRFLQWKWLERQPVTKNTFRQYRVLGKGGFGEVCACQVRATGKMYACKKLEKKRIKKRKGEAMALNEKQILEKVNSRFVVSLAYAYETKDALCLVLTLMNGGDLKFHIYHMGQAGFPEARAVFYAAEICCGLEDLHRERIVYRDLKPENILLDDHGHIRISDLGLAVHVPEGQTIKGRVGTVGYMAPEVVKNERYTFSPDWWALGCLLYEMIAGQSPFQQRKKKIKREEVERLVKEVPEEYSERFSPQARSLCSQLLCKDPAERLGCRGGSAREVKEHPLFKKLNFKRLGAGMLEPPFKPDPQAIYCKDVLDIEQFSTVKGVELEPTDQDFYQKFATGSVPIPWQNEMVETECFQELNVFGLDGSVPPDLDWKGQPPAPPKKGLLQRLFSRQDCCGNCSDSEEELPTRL
Calcium/calmodulin-dependent protein kinase type II subunit delta, sequence (Q13557 whole entry): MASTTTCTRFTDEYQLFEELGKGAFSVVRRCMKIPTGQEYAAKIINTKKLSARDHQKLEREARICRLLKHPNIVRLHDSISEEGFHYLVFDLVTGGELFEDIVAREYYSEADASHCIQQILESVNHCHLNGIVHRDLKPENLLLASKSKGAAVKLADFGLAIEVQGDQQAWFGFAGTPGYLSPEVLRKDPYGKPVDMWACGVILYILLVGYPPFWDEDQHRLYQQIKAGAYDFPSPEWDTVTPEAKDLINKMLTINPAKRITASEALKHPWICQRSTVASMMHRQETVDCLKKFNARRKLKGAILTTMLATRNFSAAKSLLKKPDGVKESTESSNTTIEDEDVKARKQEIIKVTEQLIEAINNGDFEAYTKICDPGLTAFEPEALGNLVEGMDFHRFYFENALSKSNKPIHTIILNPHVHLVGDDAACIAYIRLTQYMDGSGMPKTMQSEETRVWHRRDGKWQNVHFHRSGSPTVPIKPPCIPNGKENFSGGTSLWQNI
LIM domain kinase 2, sequence (P53671 whole entry, the tested form may be a part): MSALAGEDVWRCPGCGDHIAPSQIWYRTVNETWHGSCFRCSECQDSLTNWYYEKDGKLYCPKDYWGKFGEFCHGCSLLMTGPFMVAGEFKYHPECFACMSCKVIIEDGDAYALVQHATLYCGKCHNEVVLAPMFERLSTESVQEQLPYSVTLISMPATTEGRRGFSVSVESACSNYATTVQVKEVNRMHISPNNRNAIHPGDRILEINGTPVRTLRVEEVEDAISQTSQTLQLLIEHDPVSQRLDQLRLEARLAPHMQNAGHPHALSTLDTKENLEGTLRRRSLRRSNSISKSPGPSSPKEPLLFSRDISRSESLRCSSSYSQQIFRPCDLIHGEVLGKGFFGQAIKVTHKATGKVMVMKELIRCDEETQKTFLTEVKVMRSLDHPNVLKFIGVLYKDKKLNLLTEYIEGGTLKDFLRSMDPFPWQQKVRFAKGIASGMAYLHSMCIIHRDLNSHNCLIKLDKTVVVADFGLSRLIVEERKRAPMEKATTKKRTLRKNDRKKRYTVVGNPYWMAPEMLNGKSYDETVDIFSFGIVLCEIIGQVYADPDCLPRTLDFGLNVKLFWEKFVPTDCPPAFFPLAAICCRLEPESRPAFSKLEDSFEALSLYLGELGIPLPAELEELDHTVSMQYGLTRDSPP

Broadly, the Kd is the free concentration of one partner at which half of the binding sites on the other are occupied at equilibrium, for simple one-to-one binding. `COCc1c(-c2ccc(NC(=O)Nc3cc(C(F)(F)F)ccc3F)c(F)c2)c2c(N)ncnn2c1CN1CCOCC1`: the Kd in [1], in experiment [2], in experiment [3], in experiment [4], in experiment [5] and in [6] was > 30 µM (inactive) each time. The Kd in [7], in [8], in experiment [9], in [10], in experiment [11] and in experiment [12] was > 30 µM (inactive) throughout. Besides, the Kd was > 30 µM (inactive) in experiment [13]; > 30 µM (inactive) in experiment [14]; > 30 µM (inactive) in [15]; > 30 µM (inactive) in experiment [16]; 4.13 µM (active) in experiment [17].
Regarding `Cn1cnc2c(F)c(Nc3ccc(Br)cc3F)c(C(=O)NOCCO)cc21` [BINIMETINIB], the Kd in experiment [1], in [2], in experiment [3], in experiment [4], in experiment [5] and in [6] was > 30 µM (inactive) throughout. Also, the Kd in experiment [7], in [18], in experiment [8], in experiment [10], in [11] and in experiment [12] was > 30 µM (inactive) throughout. Moreover, the Kd in [13], in [14], in [15], in experiment [16] and in [17] was > 30 µM (inactive) throughout.
In the case of `CCn1cc(-c2ccnc3[nH]c(-c4cccc(CN(C)C)c4)cc23)c(-c2ccc(NC(=O)N(C)C)cc2)n1` [GSK-1070916], the Kd in experiment [1] is > 30 µM (inactive); in experiment [3] it was > 30 µM (inactive); in experiment [4] it was > 30 µM (inactive); in experiment [5], 0.371 µM (active); in [6] it was > 30 µM (inactive); in experiment [8], 2.41 µM (active). Further, the Kd in [9], in experiment [10], in experiment [11], in experiment [12], in experiment [13] and in experiment [14] was > 30 µM (inactive) throughout. Also, in experiment [15], the Kd was > 30 µM (inactive).
Turning to `CN(C[C@@H]1COCCO1)S(=O)(=O)Nc1ccc2ccc3ncc(-c4cnn(C)c4)cc3c(=O)c2c1` [MK-2461], the Kd in experiment [1], in experiment [2], in experiment [3], in [4], in experiment [5] and in experiment [6] was > 30 µM (inactive) throughout. In addition, the Kd in [7] was > 30 µM (inactive); in experiment [18] it was > 30 µM (inactive); in experiment [8], 3.42 µM (active); in experiment [10], > 30 µM (inactive); in experiment [11] it was > 30 µM (inactive); in [12], 3.65 µM (active). Also, the Kd in experiment [13], in [14], in [15], in experiment [16] and in experiment [17] was > 30 µM (inactive) each time.
Consider `CC(=O)NCC(=O)N1[C@@H]2CC[C@H]1c1ccc(Nc3ncc(C(F)(F)F)c(NC4CCC4)n3)cc12` [PF-03814735], for which the Kd in experiment [1] is > 30 µM (inactive); in experiment [3], > 30 µM (inactive); in experiment [5], 0.02 µM (active); in experiment [6], 2.94 µM (active); in experiment [8] it was > 30 µM (inactive); in experiment [9], > 30 µM (inactive). Moreover, the Kd in experiment [10] was > 30 µM (inactive); in [11], > 30 µM (inactive); in [12] it was 0.009 µM (active); in [13], > 30 µM (inactive); in experiment [17] it was 2.41 µM (active).
As to `CNC(=O)c1cc(Oc2ccc(NC(=O)Nc3cc(C(C)(C)C)nn3-c3ccc4ncccc4c3)c(F)c2)ccn1` [REBASTINIB], the Kd was > 30 µM (inactive) in experiment [1]; 3.5 µM (active) in experiment [3]; > 30 µM (inactive) in [4]; > 30 µM (inactive) in experiment [5]; > 30 µM (inactive) in experiment [6]; > 30 µM (inactive) in experiment [8]. Moreover, the Kd in experiment [9], in experiment [10], in [11], in experiment [12], in experiment [13] and in [14] was > 30 µM (inactive) in each case. Moreover, the results for the Kd in [15], in [16] and in [17] were > 30 µM (inactive), 4.09 µM (active) and > 30 µM (inactive), respectively.
Regarding `O=c1[nH]ccc2cc(OC3CCNCC3)ccc12` [SAR-407899 FREE BASE], the Kd in experiment [1] is > 30 µM (inactive); in experiment [2], > 30 µM (inactive); in [3], > 30 µM (inactive); in [4] it was > 30 µM (inactive); in experiment [5], > 30 µM (inactive); in experiment [6], 0.019 µM (active). Besides, the Kd in experiment [7] was > 30 µM (inactive); in experiment [18], > 30 µM (inactive); in [8] it was > 30 µM (inactive); in [10] it was > 30 µM (inactive); in [11] it was 0.016 µM (active); in experiment [12] it was 0.012 µM (active). Besides, the Kd in [13], in experiment [14], in experiment [15], in experiment [16] and in experiment [17] was > 30 µM (inactive) throughout.
Take `C[C@@H](NC(=O)c1ncnc(N)c1Cl)c1ncc(C(=O)Nc2cc(C(F)(F)F)c(Cl)cn2)s1` [TOVORAFENIB]: the Kd in [1], in experiment [2], in [3], in experiment [4], in [5] and in experiment [6] was > 30 µM (inactive) in each case. For the same compound, the Kd in experiment [7] is 0.498 µM (active); in [18] it was > 30 µM (inactive); in experiment [8], > 30 µM (inactive); in [10], > 30 µM (inactive); in experiment [11] it was > 30 µM (inactive); in experiment [12], > 30 µM (inactive). For the same compound, the Kd in experiment [13], in [14], in experiment [15], in experiment [16] and in experiment [17] was > 30 µM (inactive) each time.
